pIC50: −log10 of the molar value.
target: T1, Aurora A (Homo sapiens, UniProt O14965); assay: Z-LYTE kinase assay (peptide/kinase mixture with ATP, fluorescence); format: biochemical
T1 construct: gene AURKA
T1 sequence (O14965 1-403): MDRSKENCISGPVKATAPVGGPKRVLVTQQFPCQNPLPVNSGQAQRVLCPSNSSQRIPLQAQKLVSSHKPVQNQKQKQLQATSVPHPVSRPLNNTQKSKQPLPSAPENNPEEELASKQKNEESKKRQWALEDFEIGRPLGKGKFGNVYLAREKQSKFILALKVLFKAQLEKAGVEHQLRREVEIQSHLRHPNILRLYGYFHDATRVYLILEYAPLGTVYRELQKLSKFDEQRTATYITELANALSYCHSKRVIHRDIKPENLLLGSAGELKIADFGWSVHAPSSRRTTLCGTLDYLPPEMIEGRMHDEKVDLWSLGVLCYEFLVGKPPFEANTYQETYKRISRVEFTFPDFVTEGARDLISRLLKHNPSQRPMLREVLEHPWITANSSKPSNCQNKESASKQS

| pIC50 | SMILES |
| --- | --- |
| 3.91 | C/C=C(/C=O)c1c[nH]c2ccc(O)cc12 [compound 2, hainanerectamine B] |
| 4.36 | O=C(O)[C@@H]1Cc2c([nH]c3ccc(O)cc23)[C@H](Cc2c[nH]cn2)N1 [compound 3, (−)-(1R^*, 3R^*)-6-hydroxy-1-(4-methylene-1H-imidazole)-2,3,4,9-tetrahydro-1H-β-carboline-3-carboxylic acid] |
| 4.30 | CSc1ncn(C)c1C[C@@H]1N[C@H](C(=O)O)Cc2c1[nH]c1ccc(O)cc21 [compound 4, hainanerectamine C] |
